Reference: ChEMBL document CHEMBL3045898, “Antioxidant phenolic compounds and flavonoids of Mitragyna rotundifolia (Roxb.) Kuntze in vitro” (Med Chem Res, 2010)
Converted amounts (≈) assume the structure as drawn.

Legend:
[1] = Antioxidant activity assessed as inhibition of ABTS radical production after 10 min by spectrophotometric analysis; assay type: functional
[2] = test system: Radical scavenging activity; assay: Antioxidant activity assessed as inhibition of DPPH radical production after 30 min by spectrophotometric analysis; assay type: functional

IC50 [1] | IC50 [2] | Compound
0.78 µg/mL (≈ 2.44 µM) | 2.57 µg/mL (≈ 8.02 µM) | COc1c(O)cc([C@H]2Oc3cc(O)cc(O)c3C[C@@H]2O)cc1O [4'-O-METHYL-GALLOCATECHIN]
1.83 µg/mL (≈ 6.3 µM) | 1.61 µg/mL (≈ 5.55 µM) | Oc1cc(O)c2c(c1)O[C@H](c1ccc(O)c(O)c1)[C@H](O)C2 [(-)-EPICATECHIN]
4.555 µg/mL (≈ 20.7 µM) | 18.79 µg/mL (≈ 85.3 µM) | Cc1cc(C(C)(C)C)c(O)c(C(C)(C)C)c1 [BUTYLATED HYDROXYTOLUENE]
1.54 µg/mL (≈ 8.55 µM) | 1.8 µg/mL (≈ 9.99 µM) | O=C(O)/C=C/c1ccc(O)c(O)c1 [CAFFEIC ACID]
0.56 µg/mL (≈ 1.93 µM) | 1.4 µg/mL (≈ 4.82 µM) | Oc1cc(O)c2c(c1)O[C@H](c1ccc(O)c(O)c1)[C@@H](O)C2 [CIANIDANOL]
1.03 µg/mL (≈ 3.6 µM) | 2.51 µg/mL (≈ 8.77 µM) | O=c1c(O)c(-c2ccc(O)cc2)oc2cc(O)cc(O)c12 [KAEMPFEROL]
0.885 µg/mL (≈ 4.17 µM) | 0.94 µg/mL (≈ 4.43 µM) | CCCOC(=O)c1cc(O)c(O)c(O)c1 [PROPYL GALLATE]
2.47 µg/mL (≈ 16 µM) | ND(Insoluble) | O=C(O)c1ccc(O)c(O)c1 [PROTOCATECHUIC ACID]
